System: strains of Enterobacteriaceae producing various carbapenemases (class A, D and B; 104 strains)
Experiment: Antibiotics potentiation by Compound 27 (MIC; meropenem, doripenem, ertapenem, cefepime)
Assay type: cell-based
Settings: + 27 = with Compound 27 at fixed 4 μg/ml

Measured: MIC

COc1ccc2c(c1C(=O)O)OB(O)C(Sc1nnc(N)s1)C2 (stereo not shown) [M + 27]
X (MIC of less than 1 μg/mL): strain CF1012 Citrobacter freundii (KPC-2) | strain CF1021 Citrobacter freundii (CMY-type; VIM-1) | strain CF1022 Citrobacter freundii (SHV-12(2be), TEM-OSBL(2b); IMP-8) | strain CF1023 Citrobacter freundii (SHV-12(2be), TEM-OSBL(2b); CTX-M-3; CMY-34; NDM-1) | strain CL1080 Enterobacter cloacae (IMP-1) | strain EA1019 Enterobacter aerogenes (SHV-5, VIM-1) | strain EC1007 Escherichia coli (KPC-3) | strain EC1061 Escherichia coli (NDM-1, CMY-6) | strain EC1062 Escherichia coli (OXA-48, CTX-M-15) | strain EC1065 Escherichia coli (IMP-1) | strain EC1068 Escherichia coli (VIM-1) | strain EC1069 Escherichia coli (CTX-M-27; NDM-1) | strain EC1070 Escherichia coli (TEM-OSBL(2b); CMY-42; NDM-5) | strain EC1072 Escherichia coli (CTX-M-3; NDM-1) | strain ECL1004 Enterobacter cloacae (NMC-A) | strain ECL1026 Enterobacter cloacae (KPC-2, TEM-1) | strain ECL1036 Enterobacter cloacae (KPC-3, TEM-1) | strain ECL1045 Enterobacter cloacae (VIM-1) | strain ECL1055 Enterobacter cloacae (KPC-3, TEM) | strain ECL1058 Enterobacter cloacae (KPC-3, SHV-11, TEM-1) | strain ECL1059 Enterobacter cloacae (KPC-3, SHV-12, TEM-1) | strain ECL1061 Enterobacter cloacae (KPC-3, Hyper AmpC expression) | strain ECL1082 Enterobacter cloacae (VIM-1) | strain ECL1084 Enterobacter cloacae (CTX-M-15; ACT-16; NDM-1) | strain ECL1085 Enterobacter cloacae (SHV-31(2be), TEM-1(2b); CTX-M-15; NDM-1) | strain ECL1086 Enterobacter cloacae (VIM-31, OXA-48(c)) | strain ECL1087 Enterobacter cloacae (VIM-1) | strain ECL1088 Enterobacter cloacae (TEM-1(2b); CTX-M-14; ACT-type; VIM-1) | strain ECL1090 Enterobacter cloacae (TEM-1(2b); CTX-M-22; ACT-type; IMP-8) | strain ECL1091 Enterobacter cloacae (VIM-1) | strain ECL1092 Enterobacter cloacae (TEM-OSBL(2b); ACT-32; VIM-1) | strain ECL1093 Enterobacter cloacae (TEM-OSBL(2b); ACT-32; VIM-1) | strain ECL1094 Enterobacter cloacae (VIM-1) | strain ECL1096 Enterobacter cloacae (CMY-4, VIM-4, OXA-48(c)) | strain ECL1097 Enterobacter cloacae (SHV-31(2be), TEM-OSBL(2b); CTX-M-15; ACT-31; NDM-1) | strain ECL1098 Enterobacter cloacae (TEM-OSBL(2b); DHA-1; ACT-16; NDM-1) | strain KP1002 Klebsiella pneumoniae (KPC TEM SHV) | strain KP1003 Klebsiella pneumoniae (KPC TEM SHV) | strain KP1004 Klebsiella pneumoniae (KPC-2, TEM-1, SHV-11) | strain KP1008 Klebsiella pneumoniae (KPC-2) | strain KP1014 Klebsiella pneumoniae (VIM-1, TEM, SHV) | strain KP1054 Klebsiella pneumoniae (VIM-1, SHV-11) | strain KP1061 Klebsiella pneumoniae (KPC-3, SHV-11, TEM-1) | strain KP1065 Klebsiella pneumoniae (VIM-1, SHV-11) | strain KP1070 Klebsiella pneumoniae (KPC-2, SHV-11, TEM-1)
Z (MIC of greater than 10 μg/mL): strain ECL1057 Enterobacter cloacae (NDM-1, TEM-1, CTX-M-15) | strain KP1074 Klebsiella pneumoniae (KPC-3, SHV-11, TEM)
Y (MIC of 1 μg/mL to 10 μg/mL): strain EC1064 Escherichia coli (NDM-1, CMY-6, CTX-M-15) | strain ECL1089 Enterobacter cloacae (ACT-type; IMP-1) | strain KP1001 Klebsiella pneumoniae (KPC TEM SHV) | strain KP1059 Klebsiella pneumoniae (VIM-1, SHV-11) | strain KP1064 Klebsiella pneumoniae (KPC-2, SHV-11, TEM-1)

Source: patent US10206937B2, “Boronic acid derivatives and therapeutic uses thereof” (Qpex Biopharma, Inc., priority 2014, dated 2019)
